The values that follow are results of earlier work, collected in PMC4505863 (ACS Chemical Neuroscience, 2014).

Molecules are shown by their SMILES.

Data set [1] concerns 5-HT2 type receptors in rat jugular vein. As to conditions: cited from earlier work.
The subject of data set [2] is isolated guinea pig uterus. The settings on record: cited from earlier work.
The subject of data set [3] is isolated guinea pig taenia cecum. As to conditions: cited from earlier work.
The target in another data set is 5-HT2A receptor (Homo sapiens, UniProt P28223). The settings on record: receptor not given; cited from earlier work.
5-HT2A receptor, sequence (P28223 whole entry): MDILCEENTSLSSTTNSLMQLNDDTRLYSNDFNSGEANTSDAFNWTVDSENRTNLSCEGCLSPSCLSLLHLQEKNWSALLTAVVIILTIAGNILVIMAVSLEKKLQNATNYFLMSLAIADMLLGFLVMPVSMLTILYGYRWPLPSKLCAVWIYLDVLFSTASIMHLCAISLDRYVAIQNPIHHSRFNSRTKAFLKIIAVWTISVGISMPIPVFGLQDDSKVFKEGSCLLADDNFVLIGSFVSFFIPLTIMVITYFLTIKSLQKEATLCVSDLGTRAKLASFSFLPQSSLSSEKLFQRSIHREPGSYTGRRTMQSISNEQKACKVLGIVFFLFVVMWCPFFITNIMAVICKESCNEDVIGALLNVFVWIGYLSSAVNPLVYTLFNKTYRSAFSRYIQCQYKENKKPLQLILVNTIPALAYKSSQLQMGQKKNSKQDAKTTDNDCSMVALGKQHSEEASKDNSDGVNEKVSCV
The subject of data set [4] is 5-HT2 type receptors in rabbit aorta. As to conditions: cited from earlier work.
For another data set, the system named is rat stomach fundus. The settings on record: cited from earlier work.

With `COc1ccc2[nH]cc(CCNCc3ccccc3)c2c1` [N-benzyl-5-methoxytryptamine], the “agonist activity at 5-HT2 type receptors” value in data set [1] and in data set [4] was “weak partial agonist activity” in each case. Also, the “effect on serotonin-induced contraction” value (in data set [2]; in data set [3]; in the data set on rat stomach fundus) was “antagonist” throughout. The “affinity relative to the parent primary amine” value at 5-HT2A receptor is reported as “essentially no effect on affinity”.
